# According to patent US4570006A, “Amidine compound, process for producing same and anti-complement agent comprising same” (Torii & Co. Ltd., priority 1981, dated 1986):
# Assays:
# Plasmin = Plasmin (Homo sapiens, UniProt P00747); experiment: Anti-plasmin activity (inhibition of TAME hydrolysis); format: biochemical; conditions: read-out: ID50, plasmin
# How it was run: (§1)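 Inhibition of enzymatic TAME (tosylarginine methyl ester) hydrolysis, per Muramatsu et al. Values are ID50, the molar concentration of compound inhibiting 50% of each enzyme's TAME-hydrolysing activity.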
# Kallikrein = experiment: Anti-kallikrein activity (inhibition of TAME hydrolysis); format: biochemical; conditions: read-out: ID50, kallikrein
# How it was run: as §1
# complement = experiment: Inhibition of complement mediated hemolysis; format: cell-based
# Trypsin = biological target: T1, Trypsin (Bos taurus, UniProt P00760); experiment: Anti-trypsin activity (inhibition of TAME hydrolysis); format: biochemical; conditions: read-out: ID50, trypsin
# T1 sequence (P00760 24-246): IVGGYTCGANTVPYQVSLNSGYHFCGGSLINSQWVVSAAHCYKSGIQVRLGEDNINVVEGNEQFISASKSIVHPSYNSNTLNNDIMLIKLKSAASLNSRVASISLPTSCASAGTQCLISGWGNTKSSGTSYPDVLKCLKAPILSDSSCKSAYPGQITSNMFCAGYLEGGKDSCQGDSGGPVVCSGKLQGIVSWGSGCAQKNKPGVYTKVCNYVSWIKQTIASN
# How it was run: as §1
# Clr = biological target: T2, Clr (Homo sapiens, UniProt P00736); experiment: Anti-Cl esterase activity, Clr (AAME hydrolysis); format: biochemical; conditions: hydrolysis of AAME; read-out: Anti-Cl activity, Clr (ID50)
# T2 sequence (P00736 464-705 limits assumed): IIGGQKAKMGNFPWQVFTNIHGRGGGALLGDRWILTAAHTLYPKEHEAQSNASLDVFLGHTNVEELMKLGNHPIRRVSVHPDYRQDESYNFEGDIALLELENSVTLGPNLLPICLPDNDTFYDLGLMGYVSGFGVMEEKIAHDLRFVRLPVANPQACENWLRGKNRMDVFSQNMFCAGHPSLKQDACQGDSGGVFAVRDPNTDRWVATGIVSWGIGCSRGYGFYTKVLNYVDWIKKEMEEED
# T2 sequence (P00736 18-463 limits assumed): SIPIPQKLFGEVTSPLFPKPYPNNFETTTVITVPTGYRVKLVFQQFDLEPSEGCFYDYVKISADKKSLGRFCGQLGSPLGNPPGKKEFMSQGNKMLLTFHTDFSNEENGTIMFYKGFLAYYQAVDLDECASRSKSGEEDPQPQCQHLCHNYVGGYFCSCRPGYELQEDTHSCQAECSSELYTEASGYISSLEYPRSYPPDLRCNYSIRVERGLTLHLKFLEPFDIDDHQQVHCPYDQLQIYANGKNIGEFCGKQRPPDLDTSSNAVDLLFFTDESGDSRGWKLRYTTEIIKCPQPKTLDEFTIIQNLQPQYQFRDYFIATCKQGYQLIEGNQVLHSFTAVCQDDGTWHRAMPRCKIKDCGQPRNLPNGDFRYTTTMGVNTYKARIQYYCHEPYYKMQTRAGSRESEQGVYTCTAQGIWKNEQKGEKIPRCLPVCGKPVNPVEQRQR
# Procedure: The anti-Cl esterase ([…]) activity was determined according to the method of Okamura et al. [K. Okamura, M. Muramatsu and B. Fujii, Biochem. Biophys.
# Cls = biological target: T3, Cls (Homo sapiens, UniProt P09871); experiment: Anti-Cl esterase activity, Cls (ATEE hydrolysis); format: biochemical; conditions: hydrolysis of ATEE; read-out: Anti-Cl activity, Cls (50% inhibition)
# T3 sequence (P09871 438-688 limits assumed): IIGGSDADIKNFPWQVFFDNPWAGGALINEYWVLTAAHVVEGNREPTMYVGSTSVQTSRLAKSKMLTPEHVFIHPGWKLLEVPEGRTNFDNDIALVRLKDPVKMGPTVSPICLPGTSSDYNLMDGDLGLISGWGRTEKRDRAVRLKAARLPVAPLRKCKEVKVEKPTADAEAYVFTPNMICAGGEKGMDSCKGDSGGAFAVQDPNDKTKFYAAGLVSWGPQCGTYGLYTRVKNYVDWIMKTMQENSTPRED
# T3 sequence (P09871 16-437 limits assumed): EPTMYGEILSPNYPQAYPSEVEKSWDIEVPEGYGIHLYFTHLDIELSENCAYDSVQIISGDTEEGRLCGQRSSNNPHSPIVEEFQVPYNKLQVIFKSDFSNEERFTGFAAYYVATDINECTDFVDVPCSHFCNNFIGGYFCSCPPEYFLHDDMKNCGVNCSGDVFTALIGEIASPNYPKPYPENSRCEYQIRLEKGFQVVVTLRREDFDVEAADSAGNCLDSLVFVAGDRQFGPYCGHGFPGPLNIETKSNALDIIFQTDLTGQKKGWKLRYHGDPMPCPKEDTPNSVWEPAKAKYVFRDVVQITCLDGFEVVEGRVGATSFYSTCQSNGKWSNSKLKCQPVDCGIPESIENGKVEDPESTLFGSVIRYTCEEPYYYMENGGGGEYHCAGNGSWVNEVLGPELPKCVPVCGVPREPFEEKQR
# Procedure: The anti-Cl esterase (Clr, Cls) activity was determined according to the method of Okamura et al. [K. Okamura, M. Muramatsu and B. Fujii, Biochem. Biophys. […] The figures in Table 2 have the following meanings:
# Cls: Molar concentration of the test compound which inhibits 50% of the ability of Cls to hydrolyse ATEE (acetyltyrosin ethyl ester).
# Thrombin = Thrombin (Homo sapiens, UniProt P00734); experiment: biochemical; conditions: TAME hydrolysis; read-out: ID50, thrombin
# Sequence of Plasmin (P00747 581-810 limits assumed, species assumed): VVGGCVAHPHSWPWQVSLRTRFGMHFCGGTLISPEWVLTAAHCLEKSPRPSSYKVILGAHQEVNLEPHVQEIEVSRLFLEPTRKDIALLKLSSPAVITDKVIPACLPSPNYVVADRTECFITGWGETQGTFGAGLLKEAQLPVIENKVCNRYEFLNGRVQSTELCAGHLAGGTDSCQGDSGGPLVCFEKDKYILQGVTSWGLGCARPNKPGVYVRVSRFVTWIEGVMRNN
# Sequence of Plasmin (P00747 97-580 limits assumed, species assumed): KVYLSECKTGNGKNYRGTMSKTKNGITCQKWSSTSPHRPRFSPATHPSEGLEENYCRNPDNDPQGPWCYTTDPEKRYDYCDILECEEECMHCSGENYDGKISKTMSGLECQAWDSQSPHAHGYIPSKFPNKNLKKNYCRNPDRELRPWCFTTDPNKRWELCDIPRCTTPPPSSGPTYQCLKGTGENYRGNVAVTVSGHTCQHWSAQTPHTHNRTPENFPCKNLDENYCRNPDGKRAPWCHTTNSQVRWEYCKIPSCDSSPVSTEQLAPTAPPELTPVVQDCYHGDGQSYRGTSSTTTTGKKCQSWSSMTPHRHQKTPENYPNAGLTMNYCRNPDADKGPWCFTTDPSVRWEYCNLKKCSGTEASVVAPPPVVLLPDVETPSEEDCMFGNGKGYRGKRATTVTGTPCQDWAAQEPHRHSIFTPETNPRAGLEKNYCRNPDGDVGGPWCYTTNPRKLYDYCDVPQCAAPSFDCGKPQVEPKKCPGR
SMILES,IC50 (Plasmin),IC50 (Kallikrein),Inhibition of complement mediated hemolysis (%) (complement; compound at 1 × 10^-4),Inhibition of complement mediated hemolysis (%) (complement; compound at 1 × 10^-5),Inhibition of complement mediated hemolysis (%) (complement; compound at 1 × 10^-6),Inhibition of complement mediated hemolysis (%) (complement; compound at 1 × 10^-7),IC50 (Trypsin),IC50 (Clr),IC50 (Cls),IC50 (Thrombin)
N=C(N)c1ccc(OC(=O)c2ccc(C=O)cc2)c(C(=O)c2ccccc2)c1 [Compound 52],200 nM,> 10000 nM,100%,98.8%,75.4%,12.8%,3000 nM,5000 nM,3000 nM,90 nM
"COc1cc(C(=N)N)ccc1OC(=O)/C=C/c1ccccc1 [Compound 31, 4-amidino-2-methoxyphenyl cinnamate]",3000 nM,40000 nM,97.2%,80.5%,15.8%,1.8%,8000 nM,2000 nM,3000 nM,20000 nM
COc1cc(C(=N)N)ccc1OC(=O)c1ccc(NC(=N)N)cc1 [Compound 71],2000 nM,30000 nM,90.6%,35.3%,2.7%,9.0%,40 nM,4000 nM,700 nM,2000 nM
"N=C(N)c1cc(Br)c(OC(=O)c2ccc3c(c2)OCO3)c(Br)c1 [Compound 47, 4-amidino-2,6-dibromophenyl 3,4-methylenedioxybenzoate]",> 10000 nM,> 10000 nM,33.5%,10.4%,13.4%,0%,> 10000 nM,> 10000 nM,30 nM,> 10000 nM
CC=CC=CC(=O)Oc1ccc(C(=N)N)cc1C(=O)c1ccccc1 [Compound 6],400 nM,300 nM,100%,97.7%,52.9%,5.0%,200 nM,1000 nM,300 nM,80 nM
COc1cc(C(=N)N)ccc1OC(=O)[C@H]1CC[C@H](CNC(=O)OCc2ccccc2)CC1 [Compound 16],300 nM,5000 nM,91.2%,61.8%,17.4%,3.4%,10000 nM,> 10000 nM,800 nM,1000 nM
"N=C(N)c1ccc(OC(=O)c2ccccc2)c(C(=O)O)c1 [Compound 24, 4-amidino-2-carboxyphenyl benzoate]",> 10000 nM,> 10000 nM,88.2%,29.1%,11.0%,16.7%,3000 nM,> 10000 nM,2000 nM,4000 nM
COc1ccc(C(=O)Oc2ccc(C(=N)N)cc2C(=O)c2ccccc2)cc1 [Compound 42],300 nM,300 nM,100%,99.1%,70.0%,7.6%,70 nM,1000 nM,40 nM,70 nM
"N=C(N)c1ccc(OC(=O)c2ccccc2)c(C(=O)c2ccccc2)c1 [Compound 29, 4-amidino-2-benzoylphenyl benzoate]",400 nM,1000 nM,98.4%,97.9%,67.8%,8.0%,800 nM,3000 nM,300 nM,30 nM
"COC(=O)c1cc(C(=N)N)ccc1OC(=O)[C@H]1CC[C@H](CNC(=O)OCc2ccccc2)CC1 [Compound 18, 4-amidino-2-methoxycarbonylphenyl trans-4-benzyloxycarbonylaminomethylcyclohexanecarboxylate]",500 nM,1000 nM,98.8%,73.2%,11.4%,2.2%,3000 nM,> 10000 nM,2000 nM,4000 nM
N=C(N)c1ccc(OC(=O)c2ccc(CN)cc2)c([N+](=O)[O-])c1 [Compound 62],3000 nM,2000 nM,100%,100%,100%,95.4%,500 nM,500 nM,600 nM,500000 nM
"CC(=O)Nc1ccc(C(=O)Oc2ccc(C(=N)N)cc2C(=O)c2ccccc2)cc1 [Compound 56, 4-amidino-2-benzoylphenyl 4-acetylaminobenzoate]",300 nM,400 nM,99.1%,98.1%,88.1%,20.4%,50 nM,1000 nM,500 nM,60 nM
COC(=O)c1cc(C(=N)N)ccc1OC(=O)c1ccc(CNC(=O)OCc2ccccc2)cc1 [Compound 59],70 nM,700 nM,100%,100%,76.0%,15.6%,500 nM,2000 nM,300 nM,4000 nM
"N=C(N)c1ccc(OC(=O)c2ccccc2)c(NC(=O)c2ccccc2)c1 [Compound 30, 4-amidino-2-benzoylaminophenyl benzoate]",400 nM,200 nM,100%,100%,99.0%,45.3%,300 nM,900 nM,300 nM,30 nM
